In US5756546A (priority 1994, dated 1998):
Counter-ions that a name gives are not always drawn.

Key:
[1] = whether or not linked with L-arginine
[2] = known salts in solution; cited from earlier work

pH imposed in solution compared with the alkali metal salts (in words) [1]	SMILES	pH imposed in solution (in words) [2]
markedly less alkaline pH	CS(=O)(=O)Nc1ccc([N+](=O)[O-])cc1Oc1ccccc1 [nimesulide-L-lysine salt]	
	CS(=O)(=O)Nc1ccc([N+](=O)[O-])cc1Oc1ccccc1 [sodium salt of nimesulide]	relatively alkaline pH
